Test results taken from patent US20180127681A1, “GLYCOSYLATED AROMA- AND FRAGRANCE PRECURSORS AND FRAGRANCE PRODUCTS THAT CAN BE ACTIVATED” (Technische University Muenchen, priority 2015, published 2018).
Where “and” joins values, the source holds several entries; their conditions need not be identical. Equal entries are not always repeated.

Experiments:
[1] = Baking tests, dough of three kinds of bread with 100 ppm geranyl glucoside (summary); assay type: physicochemical
Experimental: The proof-of-principle was now shown successfully for the example bread. Dough from three different kinds of bread was treated with the aroma precursor geranyl glucoside. […] This conversion is ascribed to the biggest extent to pyrolytic processes (about 5%) during the ten-minute baking process at 230° C. and partly on the enzyme-catalyzed hydrolytic processes (about […]) during the preparation of yeast-ß-glucosidase.

[2] = Baking test 1, flour dough, release of geraniol by GC-MS; assay type: physicochemical; conditions: for conversion of GG to geraniol, mean value: triplicate, from 3.2 μmol GG in 17 g bread
Source text: Dough blanks of 10 g flour each were used as base. A negative control (flour, salt and water), three samples (added geranyl glucoside), a recovery (addition of geraniol to the bread prior to freezing according to a postulated conversion of glucoside of about 6% in order to determine the losses during the analytical process) and a control for geraniol in the glucoside solution (addition of an aliquot amount of glucoside only after the baking process to determine the content of geraniol). Several process steps are carried out according to standardized instructions, for each of the six blanks separately.
For a blank/blind test (1) 9.98 g well-mixed flour were weighed into a glass vessel and 0.2 g NaCl were added. The mixture was at first mixed in a dry state for 1 min in a farinograph (=kneader) and kneaded for 8 min after pipetting 6.4 ml dist. water. The dough was taken out quickly and weighed for a first time (E1). A first fermenting period of […] at 31° C. took place in a water vapor saturated proofing cabinet. After taking the dough out of the cabinet a second weighing (E2) took place as well as the homogenization. The ball-shaped blank was put into a round molder (“Rundwirker”) and turned for 10 turns with a superimposed pestle. It was drawn through a pasta/noodle roller, folded two times without inclusion of air and again turned in the round molder for 20 turns. Finally a forming by hand was performed. After the homogenization a second fermentation period of 35 min follows.
For samples (2a-c) additionally 10 μl of a geranyl glucoside (GG) solution (c=98 mg/ml) were quickly pipetted after the addition of water into the kneader.
Baking took place on a tray in the oven for 10 min at 230° C. Before and after putting the samples vapor was put into the closed oven, respectively (spraying and evaporating of 25 ml dist. H2O).
The baked bread was left standing for 60 min at room temperature and subsequently frozen in liquid nitrogen. Storage of the breads took place at −18° C. until the conditioning/preparation. […]

[3] = Baking test 2, simple yeast dough, release of geraniol by GC-MS; assay type: physicochemical
Experimental: (§1) As samples dough blanks of 10 g flour each were used. A negative control (flour, salt, sugar, yeast and water), three samples (additionally geranyl glucoside) and a recovery (addition of geraniol to the bread before freezing according to a postulated conversion of glucoside of 6% in order to determine losses during the analytical procedure) were used. Several process steps were carried out according to standardized specifications, separate for each of the five blanks.
For a blank/blind test (i) 9.98 g well-mixed flour were weighed into a glass vessel. 0.2 g NaCl and 0.1 g sucrose were added and the mixture was put in the kneader. An addition of 0.7 g (cooled) baking yeast directly to the kneader followed. The mixture was at first kneaded in a dry state for 1 min and kneaded for 8 min after pipetting 6.3 ml dist. H2O. All further steps including the work-up and sample taking ware carried out according to the sample with flour dough (1). In the samples (2a-c) 10 μl GG-solution were pipetted directly after the addition of water to the kneader. The preparation of the recovery (3) was carried out analogous to the blind sample. After cooling for one hour 170 μl geraniol solution were injected herein into the breadcrumb directly before freezing with liquid nitrogen.

[4] = Baking test 3, standard yeast dough, release of geraniol by GC-MS; assay type: physicochemical
Experimental: as §1, with “fat, yeast, L-ascorbic acid” for “yeast”
For a blank/blind test (i) 9.98 g well-mixed flour were weighed into a glass vessel. 0.2 g NaCl and 0.1 g sucrose and 0.1 g palm fat were added and the mixture was put in the kneader. An addition of 0.7 g (cooled) baking yeast directly to the kneader followed. The mixture was at first kneaded in a dry state for 1 min and kneaded for 8 min after pipetting 6.0 ml dist. H2O and 0.3 ml ascorbic acid solution.
All further steps including the work-up and sample taking ware carried out according to the sample with flour dough (1). In the samples (2a-c) 10 μl GG-solution were pipetted directly after the addition of water and ascorbic acid solution to the kneader. The preparation of the recovery (3) was carried out analogous to the blind sample. After cooling for one hour 170 μl geraniol solution were injected herein into the breadcrumb directly before freezing with liquid nitrogen.

FaGTs1-13 = assay: In vitro glycosyltransferase assay with 14C UDP-glucose, substrates of FaGTs1-13; assay type: biochemical, Fragaria x ananassa; conditions: FaGTs1-13, FIG. 11B, 1 h at 30° C.
Source text: In the search for efficient biocatalysts which can be particularly used for the production of aroma glycosides the UGT gene family of plant species Vitis vinifera (grape vine) and Fragaria x ananassa (strawberry) was examined. For this at first the gene sequences were searched that are strongly expressed in the fruits of the plant species. These were subsequently isolated, expressed in the host organism Escherichia coli, and the enzymatic activity toward different potential substrates was determined. At least three of the coding nucleic acid sequences (FaGTs1-5, FaGTs1-13 and VvdGT13, see appended sequences) catalyze the formation of aroma glycosides very efficiently.
In FIG. 11 the determination of the enzyme activity of FaGTs1-5 and FaGTs1-13 is shown.
The reaction was started by adding UDP-glucose and stopped after incubation with 1 ml n-butanol. After vortexing for at least 15 s the reaction mixture was centrifuged 2 min at 12 000×g for separation of the phases, and 800 μl of the upper organic phase containing the product were now transferred to 2 ml scintillation cocktail (Ultima-Flo AF, PerkinElmer).

| SMILES | content of geraniol in bread ([1]; 100 ppm added, conversion of 6%) [mg/kg] | conversion of glucoside to geraniol ([1]; addition of 100 ppm geranyl glucoside, ten-minute baking at 230° C.) | conversion ascribed to pyrolytic processes ([1]; ten-minute baking process at 230° C.) | content of geraniol in the baked bread [2] [mg/kg] | conversion of GG to geraniol, mean value [2] [%] | conversion of GG to geraniol, mean value ([2]; listed as GG) | content of geraniol in the bread [3] [mg/kg] | conversion of GG to geraniol, mean value ([3]; samples 2a and 2c only, from 3.2 μmol GG in 17 g bread) [%] | content of geraniol in the bread [4] [mg/kg] | conversion of GG to geraniol, mean value ([4]; triplicate, from 3.2 μmol GG in 17 g bread) [%] | conversion relative to furaneol (FaGTs1-13) [times] |
| --- | --- | --- | --- | --- | --- | --- | --- | --- | --- | --- | --- |
| CC(C)=CCC/C(C)=C/CO[C@@H]1O[C@H](CO)[C@@H](O)[C@H](O)[C@H]1O [geranyl glucoside] | 1.7 | about 6% | about 5% | 1.40 | 4.8 | 4.8% and 4.9% | 1.77 | 6.1 | 1.67 | 5.7 | – |
| CCC1OC(C)=C(O)C1=O (centres unmarked) [homofuraneol] | – | – | – | – | – | – | – | – | – | – | 3 |
